# Reference: patent US20130244875A1, “METHODS AND COMPOSITIONS FOR IMPROVING PLANT HEALTH” (priority 2006, published 2013)
# Experiments:
# PR5 = experiment: Induction of PR5 (northern blot) by dicamba or DCSA; assay type: in vivo, soybean; details: probe specific to PR5; procedures as for PR2
# Pythium ultimum = Pythium ultimum inoculation of cotton seedlings after spray; assay type: in vivo; details: same conditions kill plants not contacted with 3,6-DCSA
# Description: Ten-day old Roundup Ready® Flex Cotton (Event MON 88913; U.S. Publ. 20060059590) seedlings were sprayed with a mixture of Roundup Weather Max® (Monsanto Company, St. Louis, Mo.) and 3,6-DCSA (BASF). The control plants were sprayed with water only. The cotton seedlings from both treatments were inoculated with Pythium ultimum by dipping seedling into inoculum slurry, 24 hours after the spray application. The positive control plants were neither sprayed nor inoculated with P. ultimum. […] Cotton plants treated with Roundup® and DCSA were as healthy as were the plants not inoculated with P. ultimum.
# [1] = system: Verticillium (isolate King); experiment: Verticillium wilt protection in cotton, isolate King; assay type: in vivo, Verticillium dahliae; details: cotton ST6611, DCSA 1 lb/A, glyphosate 0.75 lb/A, 24 hours before inoculation
# Source text: DCSA was unexpectedly found to provide protection to cotton plants against Verticillium dahliae, causal agent of cotton wilt disease (Table 6). Cotton plants of the variety ST6611, BOLLGARD 2, ROUNDUP READY FLEX, were inoculated with a moderate isolate (DPL) or a virulent isolate (King) of Verticillium by a seedling dipping method. Seedlings at the first true leaf stage were taken out from the pots, one inch of roots were cut off, seedlings were dipped in a spore slurry for one minute, and then transplanted back in the pots. These strains were isolated and provided by Dr. Terry Wheeler (Texas A&M University, TX USA). DCSA was applied at the rate of 1 lb/A and glyphosate (ROUNDUP WEATHERMAX, Monsanto Company, St. Louis, Mo.) at the rate of 0.75 lb/A 24 hours before inoculation. Protection against Verticillium was measured on a disease severity scale of 1-9:1 being healthy and 9 being dead because of disease, and also was measured as the number of plants that survived out of 10 inoculated plants.
# soybean plants [2] = experiment: Ozone tolerance of soybeans; assay type: in vivo; details: 0.5 lbs/A DCSA about 72 hours before, 10 hours
# Description: Many plants are sensitive to ozone (O3), soybeans are particularly sensitive to ozone damage and show leaf flecking and chlorosis. Ozone can be produced in the atmosphere by a photochemical process in air polluted environments. Soybean production can be affected by ozone when soybeans are cultivated near urban areas or air pollution from urban areas is distributed to agricultural areas where soybeans are grown. An experiment was conducted to determine if DCSA treatment of soybean plants will provide tolerance to oxidative stress caused by ozone. Soybeans were treated with 0.5 lbs/A DCSA approximately 72 hours before exposure to ozone. Controls had no DCSA treatment. Four plants were treated with ozone in one 72 quart sterilite container with a clear plexiglass lid. Ozone was generated at 2 concentrations in the container with the plants at a low rate (2.8 ppm, parts per million) or a high rate (770 ppm) and the plants exposed for 10 hours at these concentrations. Light levels at plant height were ˜400μ Einsteins m-2 s-1, enough to insure photosynthesis. Air in the container was mixed using a small fan to insure proper exposure. Plants were removed from the treatment container and placed in a growth chamber to observe symptom development.
# soybean seeds = experiment: Soybean seed germination in DCSA solution; assay type: in vivo; design: key: 1—low; 2—moderate; 3—high; 3+—exceptionally high; details: N=8
# Description: Rapid seed germination is an important agronomic trait that reduces crop losses due to seed rot especially under cool wet conditions. Soybeans seeds of three varieties were germinated in a solution of 1, 10, or 100 μM DCSA or water at normal temperature (22° C.) or cool temperature (15° C.) and rated for seed germination at 1DAT (1 day after treatment) and 2DAT (2 days after treatment) at 22° C. or 4DAT (days after treatment) at 15° C. The germination rate was scored as 1—low, 2—moderate, 3—high for each treatment, 3+—exceptionally high, N=8.
# soybean plants [3] = experiment: Drought tolerance of soybean plants; assay type: in vivo; details: for Root gdwt / Leaf gdwt / Leaf gfwt / Root gfwt: variety 2 under drought stress; for Root gdwt / Leaf gdwt: dry weight; for Root gdwt: surfactant 1.16; for Leaf gdwt: surfactant 2.37; for Leaf gfwt / Root gfwt: fresh weight; for Leaf gfwt: surfactant 8.01; for Root gfwt: surfactant 12.88
# Description: Drought tolerance is an important agronomic trait. […] Soybean seeds of two varieties (1 and 2) were planted in soil in 4.5 inch pots, 3 seeds per pot. The seeds were germinated and plants grown to the V1 or V2 growth stage. DCSA was prepared (0.36 grams/60 milliliters in 20 percent acetone with 10 percent surfactant) and the plants sprayed with the DCSA solution at a rate equal to 0.5 pounds/Acre (lb/A) or 1.0 (lb/A) at day 0 or day 3 of the experiment. Water was withheld at day 0. The plants were rated on a scale of 1-4 for drought symptoms; 1—no symptoms; 2—minor symptoms, leaf curling and wilting; 3—substantial symptoms and wilting; 4—dead. The treatments were surfactant only, 0.5 lb/A DCSA, and 1.0 lb/A DCSA. The plants were treated with a surfactant or a DCSA solution, water withheld, and drought symptoms rated 2 days after treatment (2DAT), 3 days after treatment (3DAT), and 3DAT after rehydration (water added to soil saturation and plant recovery from drought symptoms measured). Fresh leaf weight (leaf grams fresh weight, leaf gfwt), fresh root weight (root grams fresh weight, root gfwt), leaf dry weight (leaf grams dry weight, leaf gdwt), and root dry weight (root grams dry weight, root gdwt) were measured.
compound,measurement,setting,value
"O=C(O)c1c(Cl)ccc(Cl)c1O [DCSA, 3,6-dichloro salicylic acid]",induction of PR5,PR5,Induction of PR5
same,survival of cotton plants after inoculation with Pythium ultimum,Pythium ultimum,survive inoculation
same,Severity rating (1-9),"[1]; 1 healthy, 9 dead, inoculated check 9",2
same,Plant survival rating (out of 10),[1]; inoculated check 0,10
same,ozone damage symptoms,"soybean plants [2]; high ozone rate 770 ppm, control lower leaves visibly damaged",did not show any lower leaf damage
same,ozone damage symptoms,"soybean plants [2]; low ozone rate 2.8 ppm, controls also without symptoms",no symptoms were observed
same,germination rating,"soybean seeds; soybean Variety 1, 1 μM DCSA, 1DAT, 22° C.",1
same,germination rating,"soybean seeds; soybean Variety 1, 1 μM DCSA, 2DAT, 22° C.",3
same,germination rating,"soybean seeds; soybean Variety 1, 1 μM DCSA, 4 DAT, 15° C.",1
same,germination rating,"soybean seeds; soybean Variety 1, 10 μM DCSA, 1DAT, 22° C.",1
same,germination rating,"soybean seeds; soybean Variety 1, 10 μM DCSA, 2DAT, 22° C.",3
same,germination rating,"soybean seeds; soybean Variety 1, 10 μM DCSA, 4 DAT, 15° C.",3
same,germination rating,"soybean seeds; soybean Variety 1, 100 μM DCSA, 1DAT, 22° C.",3
same,germination rating,"soybean seeds; soybean Variety 1, 100 μM DCSA, 2DAT, 22° C.",3+
same,germination rating,"soybean seeds; soybean Variety 1, 100 μM DCSA, 4 DAT, 15° C.",3
same,germination rating,"soybean seeds; soybean Variety 2, 1 μM DCSA, 1DAT, 22° C.",2
same,germination rating,"soybean seeds; soybean Variety 2, 1 μM DCSA, 2DAT, 22° C.",3
same,germination rating,"soybean seeds; soybean Variety 2, 1 μM DCSA, 4 DAT, 15° C.",3
same,germination rating,"soybean seeds; soybean Variety 2, 10 μM DCSA, 1DAT, 22° C.",2
same,germination rating,"soybean seeds; soybean Variety 2, 10 μM DCSA, 2DAT, 22° C.",3
same,germination rating,"soybean seeds; soybean Variety 2, 10 μM DCSA, 4 DAT, 15° C.",3
same,germination rating,"soybean seeds; soybean Variety 2, 100 μM DCSA, 1DAT, 22° C.",3
same,germination rating,"soybean seeds; soybean Variety 2, 100 μM DCSA, 2DAT, 22° C.",3+
same,germination rating,"soybean seeds; soybean Variety 2, 100 μM DCSA, 4 DAT, 15° C.",3
same,germination rating,"soybean seeds; soybean Variety 3, 1 μM DCSA, 1DAT, 22° C.",2
same,germination rating,"soybean seeds; soybean Variety 3, 1 μM DCSA, 2DAT, 22° C.",2
same,germination rating,"soybean seeds; soybean Variety 3, 1 μM DCSA, 4 DAT, 15° C.",3
same,germination rating,"soybean seeds; soybean Variety 3, 10 μM DCSA, 1DAT, 22° C.",2
same,germination rating,"soybean seeds; soybean Variety 3, 10 μM DCSA, 2DAT, 22° C.",3
same,germination rating,"soybean seeds; soybean Variety 3, 10 μM DCSA, 4 DAT, 15° C.",2
same,germination rating,"soybean seeds; soybean Variety 3, 100 μM DCSA, 1DAT, 22° C.",1
same,germination rating,"soybean seeds; soybean Variety 3, 100 μM DCSA, 2DAT, 22° C.",3
same,germination rating,"soybean seeds; soybean Variety 3, 100 μM DCSA, 4 DAT, 15° C.",1
same,average drought rating,"soybean plants [3]; soybean Variety 1, 0.5 lb/A DCSA, 2DAT, scale 1 no symptoms - 4 dead, surfactant 2",2.25
same,average drought rating,"soybean plants [3]; soybean Variety 1, 0.5 lb/A DCSA, 3DAT fb rehydration, scale 1-4, surfactant 3.25",3.75
same,average drought rating,"soybean plants [3]; soybean Variety 1, 0.5 lb/A DCSA, 3DAT, scale 1-4, surfactant 3.5",4
same,average drought rating,"soybean plants [3]; soybean Variety 1, 1.0 lb/A DCSA, 2DAT, scale 1-4, surfactant 2",1.75
same,average drought rating,"soybean plants [3]; soybean Variety 1, 1.0 lb/A DCSA, 3DAT fb rehydration, scale 1-4, surfactant 3.25",3.5
same,average drought rating,"soybean plants [3]; soybean Variety 1, 1.0 lb/A DCSA, 3DAT, scale 1-4, surfactant 3.5",3.75
same,average drought rating,"soybean plants [3]; soybean Variety 2, 0.5 lb/A DCSA, 2DAT, scale 1 no symptoms - 4 dead, surfactant 1.5",1
same,average drought rating,"soybean plants [3]; soybean Variety 2, 0.5 lb/A DCSA, 3DAT fb rehydration, scale 1-4, surfactant 3",2.5
same,average drought rating,"soybean plants [3]; soybean Variety 2, 0.5 lb/A DCSA, 3DAT, scale 1-4, surfactant 3.5",2.5
same,average drought rating,"soybean plants [3]; soybean Variety 2, 1.0 lb/A DCSA, 2DAT, scale 1-4, surfactant 1.5",1.25
same,average drought rating,"soybean plants [3]; soybean Variety 2, 1.0 lb/A DCSA, 3DAT fb rehydration, scale 1-4, surfactant 3",2.5
same,average drought rating,"soybean plants [3]; soybean Variety 2, 1.0 lb/A DCSA, 3DAT, scale 1-4, surfactant 3.5",2.5
same,Root gdwt,soybean plants [3]; 0.5 lb/A DCSA,1.25 g
same,Leaf gdwt,soybean plants [3]; 0.5 lb/A DCSA,1.43 g
same,Leaf gfwt,soybean plants [3]; 0.5 lb/A DCSA,9.45 g
same,Root gfwt,soybean plants [3]; 0.5 lb/A DCSA,13.74 g
same,Root gdwt,soybean plants [3]; 1.0 lb/A DCSA,1.34 g
same,Leaf gdwt,soybean plants [3]; 1.0 lb/A DCSA,2.20 g
same,Leaf gfwt,soybean plants [3]; 1.0 lb/A DCSA,13.94 g
same,Root gfwt,soybean plants [3]; 1.0 lb/A DCSA,15.40 g
